# Columns and labels:
# MerTK = target: T1, MerTK (Homo sapiens, UniProt Q12866); test: Phospho-AKT HTRF, HUVEC, Mer-XL, 8 pt (pAKT HTRF-HUVEC assay, anti-human MerTK-XL stimulation); assay type: cell-based; details: HUVEC cells, pAkt(Ser473) HTRF, anti-human MerTK-XL stimulation 1 ug/mL 10 minutes
# T1 construct: Seed HUVECs (10K cells/well) in EBM-2 complete media; host or cells: HUVEC
# T1 sequence (Q12866 21-999): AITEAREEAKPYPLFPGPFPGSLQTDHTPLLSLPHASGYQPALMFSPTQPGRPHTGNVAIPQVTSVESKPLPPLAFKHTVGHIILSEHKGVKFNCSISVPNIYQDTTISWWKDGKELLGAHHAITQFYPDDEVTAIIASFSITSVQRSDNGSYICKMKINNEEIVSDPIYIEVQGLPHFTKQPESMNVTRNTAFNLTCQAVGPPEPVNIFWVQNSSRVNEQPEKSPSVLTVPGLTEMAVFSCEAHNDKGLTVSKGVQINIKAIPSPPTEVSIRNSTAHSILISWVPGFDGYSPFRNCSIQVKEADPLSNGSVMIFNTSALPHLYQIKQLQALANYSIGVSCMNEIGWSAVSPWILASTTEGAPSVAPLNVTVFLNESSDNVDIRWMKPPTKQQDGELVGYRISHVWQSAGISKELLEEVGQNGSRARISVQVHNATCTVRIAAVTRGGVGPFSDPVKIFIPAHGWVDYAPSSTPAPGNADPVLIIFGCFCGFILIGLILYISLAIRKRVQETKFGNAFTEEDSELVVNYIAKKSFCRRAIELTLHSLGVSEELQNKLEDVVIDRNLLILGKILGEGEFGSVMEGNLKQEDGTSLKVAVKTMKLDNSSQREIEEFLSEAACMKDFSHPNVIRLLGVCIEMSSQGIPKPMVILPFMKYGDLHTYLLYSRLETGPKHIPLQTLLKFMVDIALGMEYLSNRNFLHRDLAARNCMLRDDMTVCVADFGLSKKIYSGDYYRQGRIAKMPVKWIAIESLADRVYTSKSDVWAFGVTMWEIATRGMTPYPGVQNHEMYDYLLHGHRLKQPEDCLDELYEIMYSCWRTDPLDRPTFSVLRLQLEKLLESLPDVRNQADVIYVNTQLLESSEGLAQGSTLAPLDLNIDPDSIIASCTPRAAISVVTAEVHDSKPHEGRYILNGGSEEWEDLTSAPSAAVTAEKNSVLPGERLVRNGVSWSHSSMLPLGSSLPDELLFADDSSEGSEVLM
# Description: (§1) Example 13: PAKT HTRF-HUVEC Assay
# (§2) Seed HUVECs (10K cells/well) in EBM-2 complete media (EBM-2 basal medium plus EGM-2 BulletKit supplements) overnight at 37° C., 5% CO2 in Costar 96-well white clear-bottom plates. Remove culture media and starve cells for 3-4 hours in 50 μL/well EBM-2 basal medium. Perform serial dilution of compounds in DMSO from 2.5 mM in 4-fold dilutions, and then dilute 1:125 in EBM-2 basal media. Mix 50 μL/well 2× compounds with 50 μL/well HUVECs in duplicate in Costar 96-well white clear-bottom plates. Incubate plates for 1 hour at 37° C., 5% CO2. Cross-link anti-human MerTK antibody to Biotin-SP-conjugated anti-mouse IgG antibody (1:1) to give final concentrations of 5 μg/mL of anti-human MerTK-XL. Stimulate HUVECs with 25 μL/well 5× anti-human MerTK-XL to give final concentrations of 1 ug/mL for 10 minutes at 37° C., 5% CO2. Completely remove media and lyse HUVECs with 40 uL:WELL per well of Cisbio HTRF 1× lysis buffer. Performed pAkt(Ser473) HTRF assay in ProxiPlate-384 Plus, white 384-shallow well microplate according to the vendor protocol and read plates with a SpectralMax Paradigm plate reader. Enter the HTRF values into Athena (Rigel) for curve fitting, EC50 calculation, and database storage.
# Axl = target: T2, Axl (Homo sapiens, UniProt P30530); test: Phospho-AKT HTRF, HUVEC, Axl ABX-L, 8 pt; assay type: cell-based; details: HUVEC cells, pAkt(Ser473) HTRF, Axl ABX-L stimulation
# T2 construct: Seed HUVECs (10K cells/well) in EBM-2 complete media; host or cells: HUVEC
# T2 sequence (P30530 26-894): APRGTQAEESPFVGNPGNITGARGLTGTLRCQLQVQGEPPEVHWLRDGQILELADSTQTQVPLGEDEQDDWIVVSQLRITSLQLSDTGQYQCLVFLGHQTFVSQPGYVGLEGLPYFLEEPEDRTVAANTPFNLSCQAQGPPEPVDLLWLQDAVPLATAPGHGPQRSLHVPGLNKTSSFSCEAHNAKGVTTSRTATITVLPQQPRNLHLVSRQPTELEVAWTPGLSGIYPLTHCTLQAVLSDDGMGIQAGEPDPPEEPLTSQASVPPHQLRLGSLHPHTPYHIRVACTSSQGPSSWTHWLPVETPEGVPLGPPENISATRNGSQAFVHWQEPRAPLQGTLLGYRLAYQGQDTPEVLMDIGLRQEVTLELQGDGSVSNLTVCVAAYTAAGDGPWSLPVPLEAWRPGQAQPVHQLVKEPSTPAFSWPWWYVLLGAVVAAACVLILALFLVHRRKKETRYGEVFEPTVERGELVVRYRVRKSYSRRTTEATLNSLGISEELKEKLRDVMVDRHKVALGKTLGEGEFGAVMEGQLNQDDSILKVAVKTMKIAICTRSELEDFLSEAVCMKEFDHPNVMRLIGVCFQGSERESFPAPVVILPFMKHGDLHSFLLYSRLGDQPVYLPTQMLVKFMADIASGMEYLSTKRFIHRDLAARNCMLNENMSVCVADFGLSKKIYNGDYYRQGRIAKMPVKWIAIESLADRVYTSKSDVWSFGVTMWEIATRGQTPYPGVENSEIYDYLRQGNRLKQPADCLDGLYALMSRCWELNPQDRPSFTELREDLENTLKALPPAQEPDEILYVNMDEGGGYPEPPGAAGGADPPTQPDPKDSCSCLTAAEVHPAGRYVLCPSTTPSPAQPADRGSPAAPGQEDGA
# Description: [The source words this procedure for another target and reports this target under the same test.] as §1, §2
SMILES,EC50 (MerTK),EC50 (Axl)
"COc1cc2c(Oc3ccc(NC(=O)c4nc(-c5ccccc5)c5c(n4)C4CCN5CC4)cc3F)ccnc2cc1OCCCN1CCOCC1 [Compound 36, N-(3-fluoro-4-((6-methoxy-7-(3-morpholinopropoxy)quinolin-4-yl)oxy)phenyl)-4-phenyl-7,8-dihydro-6H-5,8-ethanopyrido[3,2-d]pyrimidine-2-carboxamide]",9.5 nM,5.8 nM
"COc1cc2c(Oc3ccc(NC(=O)c4nc(-c5ccccc5)c5c(n4)C4CCN5CC4)nc3)ccnc2cc1OCc1ccccc1 [Compound 37, N-(5-((7-(benzyloxy)-6-methoxyquinolin-4-yl)oxy)pyridin-2-yl)-4-phenyl-7,8-dihydro-6H-5,8-ethanopyrido[3,2-d]pyrimidine-2-carboxamide]",63.6 nM,38.4 nM
"COc1cc2nccc(Oc3ccc(NC(=O)c4nc(-c5ccccc5)c5c(n4)C4CCN5CC4)nc3)c2cc1OC [Compound 38, N-(5-((6,7-dimethoxyquinolin-4-yl)oxy)pyridin-2-yl)-4-phenyl-7,8-dihydro-6H-5,8-ethanopyrido[3,2-d]pyrimidine-2-carboxamide]",7.7 nM,13.1 nM
"COc1cc2c(Oc3ccc(NC(=O)c4csc(Br)n4)nc3)ccnc2cc1OCCCN1CCOCC1 [Compound 40, 2-bromo-N-(5-((6-methoxy-7-(3-morpholinopropoxy)quinolin-4-yl)oxy)pyridin-2-yl)thiazole-4-carboxamide]",27.2 nM,147 nM
"COc1cc2c(Oc3ccc(NC(=O)c4csc(N5CCC(O)CC5)n4)nc3)ccnc2cc1OCCCN1CCOCC1 [Compound 41, 2-(4-hydroxypiperidin-1-yl)-N-(5-((6-methoxy-7-(3-morpholinopropoxy)quinolin-4-yl)oxy)pyridin-2-yl)thiazole-4-carboxamide]",640 nM,2120 nM
"COc1cc2c(Oc3ccc(NC(=O)c4csc(-c5ccccc5)n4)nc3)ccnc2cc1OCCCN1CCOCC1 [Compound 42, N-(5-((6-methoxy-7-(3-morpholinopropoxy)quinolin-4-yl)oxy)pyridin-2-yl)-2-phenylthiazole-4-carboxamide]",47.2 nM,50 nM
"COc1cc2c(Oc3ccc(NC(=O)c4csc(-c5ccc(F)cc5)n4)nc3)ccnc2cc1OCCCN1CCOCC1 [Compound 43, 2-(4-fluorophenyl)-N-(5-((6-methoxy-7-(3-morpholinopropoxy)quinolin-4-yl)oxy)pyridin-2-yl)thiazole-4-carboxamide]",44.9 nM,55.2 nM
"COc1cc2c(Oc3ccc(NC(=O)c4ncc(Br)s4)nc3)ccnc2cc1OCCCN1CCOCC1 [Compound 44, 5-bromo-N-(5-((6-methoxy-7-(3-morpholinopropoxy)quinolin-4-yl)oxy)pyridin-2-yl)thiazole-2-carboxamide]",79.9 nM,102 nM
"COc1cc2c(Oc3ccc(NC(=O)c4csc(N5CCC(O)CC5)n4)nc3)ccnc2cc1OCCCN1CCOCC1 [Compound 45, 2-(4-hydroxypiperidin-1-yl)-N-(5-((6-methoxy-7-(3-morpholinopropoxy)quinolin-4-yl)oxy)pyridin-2-yl)thiazole-4-carboxamide, hydrochloric acid]",459 nM,649 nM
"COc1cc2c(Oc3ccc(NC(=O)c4csc(N5CCCCC5)n4)nc3)ccnc2cc1OCCCN1CCOCC1 [Compound 46, N-(5-((6-methoxy-7-(3-morpholinopropoxy)quinolin-4-yl)oxy)pyridin-2-yl)-2-(piperidin-1-yl)thiazole-4-carboxamide]",12.8 nM,20.9 nM
"COc1cc2c(Oc3ccc(NC(=O)c4ncc(N5CCCCC5)s4)nc3)ccnc2cc1OCCCN1CCOCC1 [Compound 47, N-(5-((6-methoxy-7-(3-morpholinopropoxy)quinolin-4-yl)oxy)pyridin-2-yl)-5-(piperidin-1-yl)thiazole-2-carboxamide]",119 nM,130 nM
"COc1cc2c(Oc3ccc(NC(=O)c4ncc(-c5ccccc5)s4)nc3)ccnc2cc1OCCCN1CCOCC1 [Compound 48, N-(5-((6-methoxy-7-(3-morpholinopropoxy)quinolin-4-yl)oxy)pyridin-2-yl)-5-phenylthiazole-2-carboxamide]",238 nM,344 nM
"COc1cc2ncnc(Oc3ccc(NC(=O)c4nc(-c5ccccc5)c5c(n4)C4CCN5CC4)nc3)c2cc1OC [Compound 49, N-(5-((6,7-dimethoxyquinazolin-4-yl)oxy)pyridin-2-yl)-4-phenyl-7,8-dihydro-6H-5,8-ethanopyrido[3,2-d]pyrimidine-2-carboxamide]",15.4 nM,26.8 nM

# Source: patent US10851093B2, “Tyrosine kinase inhibitors” (Rigel Pharmaceuticals, Inc., priority 2018, dated 2020)
